Experimental data published in patent publication EP1836906B1, “Healthy food product” (Unilever N.V., priority 2006, dated 2009).
Ends that are not written are not given here.

Test: Water solubility test (turbid appearance of 10 mg peptide in 10 ml de-mineralised water)
Settings: water at 20 C and pH 6.5
Experimental: Peptides for use in food products according to the invention are water-insoluble in water at 20°C and a pH of 6.5. This can for example be evidenced by mixing 10 mg of the peptide into 10 ml of de-mineralised water at 20°C and pH 6.5, and stirring. A (measurable) turbid appearance of the solution after stirring is indicative of the fact that the peptide is water-insoluble.

Compound | Peptide category (substantially water-insoluble or soluble)
YYYYYY [YYYYYY] | Insoluble peptides
GGGGGGGG [GGGGGGGG] | Insoluble peptides
EAEWEY [EAEWEY, reference compound] | Soluble peptides
DDDDDD [DDDDDD, reference compound] | Soluble peptides

The next lines start with the values.

Peptide category (substantially water-insoluble or soluble) | Compound
Soluble peptides | GSGGSG [GSGGSG]
Soluble peptides | VEWEME [VEWEME, reference compound]

Test: not given
Settings: pH 6.5

Peptide category (substantially water-insoluble or soluble) | Compound
Insoluble peptides | NCC(=O)NCC(=O)NCC(=O)NCC(=O)NCC(=O)NCC(=O)O [GGGGGG]
